Test results reported in publication PMC6445195, “Synthesis and biological evaluation of aminomethyl and alkoxymethyl derivatives as carbonic anhydrase, acetylcholinesterase and butyrylcholinesterase inhibitors” (Journal of Enzyme Inhibition and Medicinal Chemistry, 2017).
Values joined by “and” are separate entries in the source; they are usually repeats but may differ in a detail not shown here. Equal entries are not always repeated. Where two headings read alike, the source gives them in different places.

What was measured:
Assay in all cases: biochemical
Assay type in all cases: biochemical
hCA I = biological target: T1, hCA I (Homo sapiens, UniProt P00915)
T1 construct: from tissue; host or cells: fresh human erythrocytes
Method: (§1) CA activity was determined using the previously described spectrophotometric procedure of Verpoorte et al. as explained previously.[21] ^, [57] ^, [58] […] The quantity of protein was measured according to the previously described by Bradford method.[61–64] and bovine serum albumin was used as the standard.[65] ^, [66] After the purification method of the CA isoforms, samples were subjected to SDS polyacrylamide gel electrophoresis (SDS-PAGE).[67–69] […] The IC50 values were calculated from activity (%) against compounds inhibition.[72–74] Three various concentrations were used to calculate Ki values.[75–77]

hCA II = biological target: T2, hCA II (Homo sapiens, UniProt P00918)
T2 construct: from tissue; host or cells: fresh human erythrocytes
Method: as §1

AChE = AChE (Homo sapiens, UniProt P22303); conditions: for AChE/BChE (proportion of AChE to BChE, selectivity): ratio of Ki AChE to Ki BChE
Method: (§2) Acetylthiocholine iodide (AChI) and butyrylthiocholine iodide (BChI) were used as substrates for the reaction. 5,5′-Dithio-bis(2-nitro-benzoic)acid (DTNB) was used for the measurement of the AChE/BChE activities. Briefly, 1.0 ml of Tris/HCl buffer (1.0 M, pH 8.0), and 10 µL of sample solution were dissolved in deionized water at different concentrations and 50 µL AChE/BChE solution were mixed and incubated for 10 min at 25 °C. Next 50 µL of DTNB (0.5 mM) was added. The reaction was then initiated by the addition of 50 µL of AChI or BChI.

BChE = BChE (Homo sapiens, UniProt P06276)
Method: as §2

[1] = purified from human erythrocytes, PNA substrate, 22 °C, read-out: IC50 hCA I
[2] = three concentrations used, read-out: Ki hCA I
[3] = purified from human erythrocytes, PNA substrate, 22 °C, read-out: IC50 hCA II
[4] = three concentrations used, read-out: Ki hCA II
[5] = Ellman, Tris/HCl pH 8.0, 25 °C, read-out: IC50 AChE
[6] = Ellman, Tris/HCl pH 8.0, 25 °C, read-out: IC50 BChE

AChE, sequence (P22303 32-614): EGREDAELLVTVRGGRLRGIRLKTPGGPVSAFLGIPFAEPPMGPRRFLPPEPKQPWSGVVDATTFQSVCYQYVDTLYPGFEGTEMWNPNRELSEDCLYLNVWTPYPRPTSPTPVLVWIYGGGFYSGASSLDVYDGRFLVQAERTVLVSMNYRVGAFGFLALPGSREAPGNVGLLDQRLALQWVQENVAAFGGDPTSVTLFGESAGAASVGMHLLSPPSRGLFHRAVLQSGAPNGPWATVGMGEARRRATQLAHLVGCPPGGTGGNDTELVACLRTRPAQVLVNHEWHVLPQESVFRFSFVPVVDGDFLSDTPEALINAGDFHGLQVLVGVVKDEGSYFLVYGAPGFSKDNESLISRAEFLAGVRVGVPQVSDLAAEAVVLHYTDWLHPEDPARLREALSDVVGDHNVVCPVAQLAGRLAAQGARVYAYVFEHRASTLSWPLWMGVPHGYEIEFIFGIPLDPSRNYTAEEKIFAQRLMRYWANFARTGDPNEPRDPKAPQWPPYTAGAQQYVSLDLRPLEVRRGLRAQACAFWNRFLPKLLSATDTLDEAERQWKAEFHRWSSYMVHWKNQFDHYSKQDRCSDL
T1 sequence (P00915 whole entry): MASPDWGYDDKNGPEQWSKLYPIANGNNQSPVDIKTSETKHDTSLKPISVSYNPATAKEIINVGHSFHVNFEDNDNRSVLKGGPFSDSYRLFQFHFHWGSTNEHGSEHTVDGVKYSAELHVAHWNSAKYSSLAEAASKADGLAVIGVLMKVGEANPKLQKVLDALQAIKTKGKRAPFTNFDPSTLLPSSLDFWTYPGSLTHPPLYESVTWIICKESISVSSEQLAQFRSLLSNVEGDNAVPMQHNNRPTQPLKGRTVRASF
BChE, sequence (P06276 29-602): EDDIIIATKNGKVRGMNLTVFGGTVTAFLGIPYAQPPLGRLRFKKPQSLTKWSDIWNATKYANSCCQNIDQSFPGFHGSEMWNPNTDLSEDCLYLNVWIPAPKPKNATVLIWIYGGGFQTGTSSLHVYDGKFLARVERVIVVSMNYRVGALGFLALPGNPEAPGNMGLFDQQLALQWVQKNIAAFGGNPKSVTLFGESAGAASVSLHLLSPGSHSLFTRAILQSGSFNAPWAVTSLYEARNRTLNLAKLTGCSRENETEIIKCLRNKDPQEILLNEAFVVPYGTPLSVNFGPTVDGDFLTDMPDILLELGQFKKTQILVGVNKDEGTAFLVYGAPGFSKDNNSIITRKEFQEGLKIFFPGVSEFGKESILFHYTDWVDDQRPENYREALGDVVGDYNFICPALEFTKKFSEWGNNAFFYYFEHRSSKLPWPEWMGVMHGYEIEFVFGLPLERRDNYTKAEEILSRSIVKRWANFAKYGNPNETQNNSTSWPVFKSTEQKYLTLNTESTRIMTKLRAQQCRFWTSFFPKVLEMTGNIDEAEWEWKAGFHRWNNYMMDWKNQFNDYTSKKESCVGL

Row | Compound | IC50 (hCA I; [1]) | Ki (hCA I; [2]) | IC50 (hCA II; [3]) | Ki (hCA II; [4]) | IC50 (AChE; [5]) | AChE/BChE (proportion of AChE to BChE, selectivity) (AChE) | Ki (AChE; read-out: Ki AChE) | IC50 (BChE; [6]) | Ki (BChE; read-out: Ki BChE) | IC50 (BChE) | Ki (BChE) | IC50 (hCA I) | Ki (hCA I) | IC50 (hCA II) | Ki (hCA II) | IC50 (AChE) | Ki (AChE) | fold of inhibitory activity against AChE/BChE than that of TAC (AChE; AChE/BChE selectivity relative to TAC)
1 | S=c1sc2ccccc2n1CN1CCOCC1 [Compound 1, N-oxazinomethylbenzothiazoline-2-thione] | 79 nM | 108 ± 35 nM | 104 nM | 81 ± 19 nM | 51 nM | 0.812 | 26 ± 5 nM | 88 nM | 32 ± 7 nM | – | – | – | – | – | – | – | – | –
2 | S=c1sc2ccccc2n1CN1CCCCC1 [Compound 4, N-Piperidinomethylbenzothiazoline-2-thione] | 86 nM | 86 ± 40 nM | 99 nM | 105 ± 25 nM | 36 nM | 0.439 | 18 ± 2 nM | – | – | 82 nM | 41 ± 13 nM | – | – | – | – | – | – | –
3 | CCN(CC)Cn1c(=S)sc2ccccc21 [Compound 5, N-diethylaminomethylbenzothiazoline-2-thione] | – | – | – | – | – | 0.666 | – | – | – | 83 nM | 51 ± 9 nM | 82 nM | 70 ± 15 nM | 98 nM | 100 ± 24 nM | 52 nM | 34 ± 9 nM | –
4 | CCN(CC)Cn1c(=S)oc2ccccc21 [Compound 6, N-diethylaminomethylbenzoxazoline-2-thione] | 102 nM | 123 ± 48 nM | 118 nM | 115 ± 28 nM | 44 nM | 1.500 | 45 ± 11 nM | – | – | 80 nM | 30 ± 3 nM | – | – | – | – | – | – | –
5 | S=c1oc2ccccc2n1CN1CCOCC1 [Compound 8, N-morfolinomethylbenzoxazoline-2-thion] | 94 nM | 58 ± 15 nM | 119 nM | 121 ± 40 nM | 38 nM | 1.391 | 32 ± 6 nM | 48 nM | 23 ± 3 nM | – | – | – | – | – | – | – | – | –
6 | S=c1oc2ccccc2n1CN1CCOC1 [Compound 9, N-oxazolidinomethylbenzoxazoline-2-thione] | 103 nM | 76 ± 20 nM | 121 nM | 135 ± 33 nM | 62 nM | 0.975 | 78 ± 36 nM | 84 nM | 80 ± 9 nM | – | – | – | – | – | – | – | – | –
7 | CC(C)OCn1c(=S)oc2ccccc21 [Compound 13, N-isopropoxymethylbenzoxazoline-2-thione] | 105 nM | 90 ± 23 nM | 122 nM | 94 ± 37 nM | 63 nM | 0.971 | 34 ± 5 nM | – | – | 83 nM | 35 ± 4 nM | – | – | – | – | – | – | –
8 | COCCOCn1c(=S)oc2ccccc21 [Compound 14, N-(methoxyethoxy)methyl-benzoxazoline-2-thione] | 112 nM | 119 ± 53 nM | 128 nM | 142 ± 56 nM | 38 nM | 0.388 and 0.383 | 23 ± 4 nM | – | – | 68 nM | 60 ± 13 nM | – | – | – | – | – | – | 2.22 fold
9 | COCCOCNc1nccs1 [Compound 15, 2-(methoxyethoxy) methylaminothiazole] | 128 nM | 118 ± 27 nM | 158 nM | 193 ± 79 nM | 43 nM | 0.555 | 25 ± 3 nM | 109 nM | 45 ± 14 nM | – | – | – | – | – | – | – | – | –
10 | CC(C)OCNc1nccs1 [Compound 16, 2-isopropoxymethylaminothiazole] | 156 nM | 132 ± 30 nM | 167 nM | 162 ± 29 nM | 76 nM | 0.763 | 42 ± 4 nM | – | – | 127 nM | 55 ± 12 nM | – | – | – | – | – | – | –
11 | COCNc1nccs1 [Compound 17, 2-(methoxy)methylaminothiazole] | 142 nM | 157 ± 38 nM | 187 nM | 215 ± 40 nM | 80 nM | 1.285 | 54 ± 10 nM | – | – | 144 nM | 42 ± 20 nM | – | – | – | – | – | – | –
